The values below come from patent US9675569B2, “Method for treating a pulmonary disease state in mammals by up regulating indigenous in vivo levels of inflammatory agents in mammalian cells” (priority 2012, dated 2017).

Test [1] deals with total protein, elastase, IL-6, IL-8, TNF-α. Nature of the test: Inhaled sodium pyruvate in cystic fibrosis safety study: sputum inflammatory biomarkers. The class given is in vivo, human. The conditions noted are these: for total proteins, elastase, IL-6, IL-8, and TNF-α: CF subjects. Here is the method: All of the enrolled and dosed subjects were able to provide sputum samples for analysis before and after exposure to study drug (sodium pyruvate for inhalation at 0.5, 1.5, and 5.0 mM levels). The subjects were given 5 ml samples to inhale. Specimens were of good quality for the planned assays.
Samples were divided into two main aliquots after processing. The first aliquot was left untreated to be able to assay for the activity of free elastase. The second aliquot was treated with protease inhibitors pheylmethanesulfonylfluoride (PMSF) and ethylenediamine tetraacetic acid (EDTA) to stop any degradation of the cytokines of interest (IL-6, IL-8, IL-10, IL-17, and IL-23) and total protein.
For IL-10, IL-17 and IL-23, levels on sputum were at or below the limit of detection for the assays (7, 2 and 20 pg/mL respectively). For the other markers (total protein, elastase, IL-6, IL-8, TNF-α) levels detected where within those typically found in cystic fibrosis (CF) patients.

The test system of another test is HSV-I infected cell. Nature of the test: Viral plaque reduction in HSV-I infected cells. The conditions noted are these: for viral plaque formation decreased: virally infected cells (Example 1). The class given is cell-based. An excerpt:
The primary end points were the levels of IL-8 and IL-1 after treatment with an immunostimulator, pyruvate and the combination of pyruvate and α-ketoisovalerate. […] IL-8 activates neutrophils to increase their numbers at the infected site. […] IL-1 increases inflammation and decreases healing times. […] Viral plaques are a direct measure of viral numbers in infected cells.

Test [2] is described as follows: One week open label home-use trial of sodium pyruvate+saline nasal sprays (Example 5). The class given is in vivo, human. The text has this:
Thirty-nine (39) subjects who were regular nasal spray users due to chronic sinusitis or allergic rhinitis and other sinus diseases were recruited for a one week open label, in home-use trial. Allergic rhinitis and other sinus diseases result in the elevation of certain inflammatory components and the concurrent down regulation of some other inflammatory components. When this happens, infections can occur. The ability to up-regulate these immune components helps balance the nasal immune system to inhibit infections and minimize injury to surrounding tissues. Six (6) different sodium pyruvate+saline combination nasal sprays, based on concentrations of saline and sodium pyruvate, were administered to the subjects, and each of the test products were used by at least six subjects. The subjects used the test nasal sprays at home (two to three sprays; two or three times a day) for seven days, in place of their regular nasal spray.
Prior to, and at the end of the study period, the subjects' nostrils were examined for mucosal fragility, lesions, erythema, and edema using a rhinoscope.
Thirty-eight subjects completed the study. […] The test formula ranged from 0.5 mM solutions to 20 mM solutions. […] In this case we delivered the 20 mM solution nasal solution with sodium pyruvate. […]

Test [3] has as its system HSV-1, HSV-2 and various rhinoviruses. In words: Tissue culture studies, viral plaques. The class given is cell-based. Particulars: 10-40 mM concentrations. The method, then: (§1) This medication is an anti-viral drug used to treat infants and young children who have a severe lung infection caused by a certain virus (respiratory syncytial virus-RSV). Nearly all children become infected with this virus before they are 3 years old. […] This medication is used to treat severe RSV infections that need treatment in a hospital. This medication is given by continuous inhalation, usually for 12 to 18 hours daily for 3 to 7 days or as directed by the doctor. A special machine (small-particle aerosol generator) is used to make a mist, which is then inhaled through the mouth or nose. Chest soreness may occur. Redness/irritation of the nasal cavities and eye or eyelid may also occur. When five (5) mls. of a 10 mM solution of pyruvate was used prior to the administration of this medication; the patient reported that the irritation and chest soreness was eliminated. […] Tissue culture studies with HSV-1, HSV-2 and various rhinoviruses, have shown that 10-40 mM concentrations of pyruvate reduced viral plaques by 40-60% by increasing the synthesis of various cytokines. The combination of various antivirals with pyruvate totally eliminated the virus infection in cells. The inhalation of 5.0 mls of a 20 mM solution of sodium pyruvate used by itself reduced viral infections in a patient with sinusitis by 50%.

For a further test, the system named is viral infections. In words: Inhaled sodium pyruvate in a patient with sinusitis, viral infections. The conditions noted are these: inhalation of 5.0 mls of a 20 mM solution, used by itself; one patient. The class given is in vivo, human. The method, then:
as §1

As to `CC(=O)C(=O)[O-].[Na+]` [sodium pyruvate], the “levels of TNF-α” value in test [1] (inhalation at 0.5 mM) is recorded as “did not increase”. Also, the “levels of white blood cells, elastase, IL-8, IL-6” value in test [1] (inhalation at 0.5 mM) was “reduced”. For the same compound, the entries for the “total proteins, elastase, IL-6, IL-8, and TNF-α” value in test [1] (inhalation of 5 ml of 0.5 mM) and in test [1] (inhalation of 5 ml of 5 mM or higher) were “reduced” and “increased”, respectively. The “levels of white blood cells elastase, IL-8, IL-6, IL-10 and TNF-α” value in test [1] (inhalation of more than 5 mM in humans) is on record as “increased”. Further, the “viral plaque formation decreased” value in the test with HSV-I infected cell is 50%. Also, the “effectiveness rated by the patients compared to the 20-40 mM solutions” value in test [2] (0.5 mM to 5 mM solutions) is given as “non-effective to less effective”. Moreover, the “rating by the patients” value in test [2] (40 mM solution) is “favorably rated”. For the same compound, the viral plaques reduced in test [3] was 40-60%. The viral infections reduced in the test with viral infections was 50%.
As for `Nc1nc2c(ncn2COCCO)c(=O)[nH]1` [Acyclovir, 9-[(2-hydroxyethyloxy)methyl]guanine], in the test with HSV-I infected cell (Acyclovir alone, therapeutic dose), the “Percentage of viral plaque reduction in virally infected cells” value worked out at 40%. For the same compound, the “viral plaque formation decreased” value in the test on HSV-I infected cell was 60%.
